According to patent US12077503B2, “Substituted cyclic amides and their use as herbicides” (FMC CORPORATION, priority 2015, dated 2024):

Experiments:
Format in all cases: in vivo
[1] = tested on: wheat (Triticum aestivum); test: Test A postemergence; details: Triticum aestivum, post-emergence, 240 h, Postemergence, read-out: Wheat plant response rating (0 to 100 scale); for plant injury at 125 g/ha: 125 g ai/ha, visual rating about 10 d after treatment; for plant injury at 31 g/ha: 31 g ai/ha, 0 is no effect, 100 is complete control
In short: (§1)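 Seeds sprayed preemergence with a directed soil spray, or plants at 2 to 10 cm height and one- to two-leaf stage sprayed postemergence, with test chemicals in a non-phytotoxic solvent mixture containing surfactant, in loam soil–sand blend. Injury rated visually against untreated controls after about 10 d in greenhouse, 0 (no effect) to 100 (complete control).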

[2] = tested on: pigweed (Amaranthus retroflexus); test: Test A postemergence; details: Amaranthus retroflexus, post-emergence, 240 h, Postemergence, read-out: Pigweed plant response rating (0 to 100 scale); for pest or weed control at 125 g/ha: 125 g ai/ha, visual rating about 10 d after treatment; for pest or weed control at 31 g/ha: 31 g ai/ha, 0 is no effect, 100 is complete control
In short: as §1

[3] = tested on: Galium (catchweed bedstraw, Galium aparine); test: Test A postemergence; details: Galium, post-emergence, 240 h, Postemergence, read-out: Galium plant response rating (0 to 100 scale); for pest or weed control at 125 g/ha: 125 g ai/ha, visual rating about 10 d after treatment; for pest or weed control at 31 g/ha: 31 g ai/ha, 0 is no effect, 100 is complete control
In short: as §1

[4] = tested on: ragweed (common ragweed, Ambrosia elatior); test: Test A postemergence; details: Ambrosia artemisiifolia, post-emergence, 240 h, Postemergence, read-out: Ragweed plant response rating (0 to 100 scale); for pest or weed control at 125 g/ha: 125 g ai/ha, visual rating about 10 d after treatment; for pest or weed control at 31 g/ha: 31 g ai/ha, 0 is no effect, 100 is complete control
In short: as §1

[5] = tested on: ryegrass, Italian (Italian ryegrass, Lolium multiflorum); test: Test A postemergence; details: Lolium multiflorum, post-emergence, 240 h, Postemergence, read-out: Ryegrass, Italian plant response rating (0 to 100 scale); for pest or weed control at 125 g/ha: 125 g ai/ha, visual rating about 10 d after treatment; for pest or weed control at 31 g/ha: 31 g ai/ha, 0 is no effect, 100 is complete control
In short: as §1

Kochia (Kochia scoparia) [6] = test: Test A postemergence; details: Bassia scoparia, post-emergence, 240 h, Postemergence, read-out: Kochia plant response rating (0 to 100 scale); for pest or weed control at 125 g/ha: 125 g ai/ha, visual rating about 10 d after treatment; for pest or weed control at 31 g/ha: 31 g ai/ha, 0 is no effect, 100 is complete control
In short: as §1

corn (Zea mays) = test: Test A postemergence; details: Zea mays, post-emergence, 240 h, Postemergence, read-out: Corn plant response rating (0 to 100 scale); for plant injury at 125 g/ha: 125 g ai/ha, visual rating about 10 d after treatment; for plant injury at 31 g/ha: 31 g ai/ha, 0 is no effect, 100 is complete control
In short: as §1

[7] = tested on: barnyardgrass (Echinochloa crus-galli); test: Test A postemergence; details: Echinochloa crus-galli, post-emergence, 240 h, Postemergence; for pest or weed control at 125 g/ha: 125 g ai/ha, visual rating about 10 d after treatment, read-out: Barnyardgrass plant response rating (0 to 100 scale, 0 no effect, 100 complete control); for pest or weed control at 31 g/ha: 31 g ai/ha, 0 is no effect, 100 is complete control, read-out: Barnyardgrass plant response rating (0 to 100 scale)
In short: as §1

[8] = tested on: giant foxtail (Setaria faberii); test: Test A postemergence; details: Setaria faberi, post-emergence, 240 h, Postemergence, read-out: Foxtail, Giant plant response rating (0 to 100 scale); for pest or weed control at 125 g/ha: 125 g ai/ha, visual rating about 10 d after treatment; for pest or weed control at 31 g/ha: 31 g ai/ha, 0 is no effect, 100 is complete control
In short: as §1

[9] = tested on: blackgrass (Alopecurus myosuroides); test: Test A postemergence; details: Alopecurus myosuroides, post-emergence, 240 h, Postemergence, read-out: Blackgrass plant response rating (0 to 100 scale); for pest or weed control at 125 g/ha: 125 g ai/ha, visual rating about 10 d after treatment; for pest or weed control at 31 g/ha: 31 g ai/ha, 0 is no effect, 100 is complete control
In short: as §1

[10] = tested on: pigweed (Amaranthus retroflexus); test: Test A preemergence; details: Amaranthus retroflexus, pre-emergence, 240 h, 0 to 100 scale where 0 is no effect and 100 is complete control, read-out: Pigweed plant response rating; for pest or weed control at 31 g/ha: 31 g ai/ha, Preemergence; for pest or weed control at 125 g/ha: 125 g ai/ha, preemergence, visual injury rating, approximately 10 d
[11] = tested on: ragweed (common ragweed, Ambrosia elatior); test: Test A preemergence; details: Ambrosia artemisiifolia, pre-emergence, 240 h, 0 to 100 scale where 0 is no effect and 100 is complete control, read-out: Ragweed plant response rating; for pest or weed control at 31 g/ha: 31 g ai/ha, Preemergence; for pest or weed control at 125 g/ha: 125 g ai/ha, preemergence, visual injury rating, approximately 10 d
In short: as §1

[12] = tested on: ryegrass, Italian (Italian ryegrass, Lolium multiflorum); test: Test A preemergence; details: Lolium multiflorum, pre-emergence, 240 h, 0 to 100 scale where 0 is no effect and 100 is complete control, read-out: Ryegrass, Italian plant response rating; for pest or weed control at 31 g/ha: 31 g ai/ha, Preemergence; for pest or weed control at 125 g/ha: 125 g ai/ha, preemergence, visual injury rating, approximately 10 d
In short: as §1

Kochia (Kochia scoparia) [13] = test: Test A preemergence; details: Bassia scoparia, pre-emergence, 240 h, 0 to 100 scale where 0 is no effect and 100 is complete control, read-out: Kochia plant response rating; for pest or weed control at 31 g/ha: 31 g ai/ha, Preemergence; for pest or weed control at 125 g/ha: 125 g ai/ha, preemergence, visual injury rating, approximately 10 d
In short: as §1

[14] = tested on: barnyardgrass (Echinochloa crus-galli); test: Test A preemergence; details: Echinochloa crus-galli, pre-emergence, 240 h, 0 to 100 scale where 0 is no effect and 100 is complete control, read-out: Barnyardgrass plant response rating; for pest or weed control at 31 g/ha: 31 g ai/ha, Preemergence; for pest or weed control at 125 g/ha: 125 g ai/ha, preemergence, visual injury rating, approximately 10 d
In short: as §1

[15] = tested on: giant foxtail (Setaria faberii); test: Test A preemergence; details: Setaria faberi, pre-emergence, 240 h, 0 to 100 scale where 0 is no effect and 100 is complete control, read-out: Foxtail, Giant plant response rating; for pest or weed control at 31 g/ha: 31 g ai/ha, Preemergence; for pest or weed control at 125 g/ha: 125 g ai/ha, preemergence, visual injury rating, approximately 10 d
In short: as §1

[16] = tested on: sedge, umbrella (small-flower umbrella sedge, Cyperus difformis); test: Test B flooded paddy test; details: Cyperus difformis, 250 g ai/ha, Flood; 0 to 100 scale where 0 is no effect and 100 is complete control; read-out: Sedge, Umbrella plant response rating
In short: (§2)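 Greenhouse paddy pots with 2-leaf stage plants received compound by direct addition to floodwater 3 cm deep, kept at that level. Scored visually at 13–15 d versus controls (0 no effect; 100 complete control).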

[17] = tested on: ducksalad (Heteranthera limosa); test: Test B flooded paddy test; details: Heteranthera limosa, 250 g ai/ha, Flood; 0 to 100 scale where 0 is no effect and 100 is complete control; read-out: Ducksalad plant response rating
In short: as §2

rice (Oryra sativa) = test: Test B flooded paddy test; details: Oryza sativa, 250 g ai/ha, Flood; 0 to 100 scale where 0 is no effect and 100 is complete control; read-out: Rice plant response rating
In short: as §2

[18] = tested on: barnyardgrass (Echinochloa crus-galli); test: Test B flooded paddy test; details: Echinochloa crus-galli, 250 g ai/ha, Flood; 0 to 100 scale where 0 is no effect and 100 is complete control; read-out: Barnyardgrass plant response rating
In short: as §2

SMILES	plant injury at 125 g/ha [1] [%]	plant injury at 31 g/ha [1] [%]	pest or weed control at 125 g/ha [2] [%]	pest or weed control at 31 g/ha [2] [%]	pest or weed control at 125 g/ha [3] [%]	pest or weed control at 31 g/ha [3] [%]	pest or weed control at 125 g/ha [4] [%]	pest or weed control at 31 g/ha [4] [%]	pest or weed control at 125 g/ha [5] [%]	pest or weed control at 31 g/ha [5] [%]	pest or weed control at 125 g/ha (Kochia (Kochia scoparia) [6]) [%]	pest or weed control at 31 g/ha (Kochia (Kochia scoparia) [6]) [%]	plant injury at 125 g/ha (corn (Zea mays)) [%]	plant injury at 31 g/ha (corn (Zea mays)) [%]	pest or weed control at 125 g/ha [7] [%]	pest or weed control at 31 g/ha [7] [%]	pest or weed control at 125 g/ha [8] [%]	pest or weed control at 31 g/ha [8] [%]	pest or weed control at 125 g/ha [9] [%]	pest or weed control at 31 g/ha [9] [%]	also measured
CN1C[C@H](c2csc3c2CCCC3)[C@@H](C(=O)Nc2ccccc2F)C1=O [Compound 1275]	0	0	0	0	0	0	0	0	0	0	0	0	0	0	90	30	70	20	0	0	pest or weed control at 31 g/ha [10]: 0%; pest or weed control at 125 g/ha [10]: 0%; pest or weed control at 31 g/ha [11]: 0%; pest or weed control at 125 g/ha [11]: 20%; pest or weed control at 31 g/ha [12]: 0%; pest or weed control at 125 g/ha [12]: 0%; pest or weed control at 31 g/ha (Kochia (Kochia scoparia) [13]): 0%; pest or weed control at 125 g/ha (Kochia (Kochia scoparia) [13]): 20%; pest or weed control at 31 g/ha [14]: 70%; pest or weed control at 125 g/ha [14]: 100%; pest or weed control at 31 g/ha [15]: 90%; pest or weed control at 125 g/ha [15]: 100%; pest or weed control at 250 g/ha [16]: 0%; pest or weed control at 250 g/ha [17]: 90%; pest or weed control at 250 g/ha (rice (Oryra sativa)): 20%; pest or weed control at 250 g/ha [18]: 75%
CN1C[C@H](c2csc3c2CCC3)[C@@H](C(=O)Nc2cccc(F)c2F)C1=O [Compound 1278]	0	0	0	0	0	0	30	0	0	0	20	0	0	0	100	70	80	50	0	0	pest or weed control at 31 g/ha [10]: 0%; pest or weed control at 125 g/ha [10]: 90%; pest or weed control at 31 g/ha [11]: 20%; pest or weed control at 125 g/ha [11]: 100%; pest or weed control at 31 g/ha [12]: 0%; pest or weed control at 125 g/ha [12]: 30%; pest or weed control at 31 g/ha (Kochia (Kochia scoparia) [13]): 30%; pest or weed control at 125 g/ha (Kochia (Kochia scoparia) [13]): 30%; pest or weed control at 31 g/ha [14]: 80%; pest or weed control at 125 g/ha [14]: 100%; pest or weed control at 31 g/ha [15]: 100%; pest or weed control at 125 g/ha [15]: 100%; pest or weed control at 250 g/ha [16]: 0%; pest or weed control at 250 g/ha [17]: 90%; pest or weed control at 250 g/ha (rice (Oryra sativa)): 35%; pest or weed control at 250 g/ha [18]: 60%
